# Source: patent US20080064723A1, “Anti-Hair Graying Agent” (SHISEIDO COMPANY, LTD., priority 2004, published 2008)
# System: humans
# Assay: Human anti-hair graying effect test
# Type: in vivo
# Settings: 0.25% sample applied on scalps of 10 male subjects, two times per day, 2 ml per time, six months; after use vs before use
# Experimental: As the test substances, compounds 1, 2 and 3 were used. Each test substance was dissolved in a mixed solution of an aqueous 70% ethanol solution plus 1% 1,3-butylene glycol and the resultant mixture used as the sample (test substance concentration: 0.25%).
# The number of gray hairs among approximately 1000 hairs was counted before and after use of each sample. The changes of the ratios were used to compare the anti-hair graying actions. Specifically, each sample was applied on the scalps of 10 male subjects two times per day, 2 ml per time, continuously for six months. One thousand hairs of each of the subjects were counted divided into black hairs and gray hairs before the application and right after the end of six months after termination of the application to investigate the hair graying rate. The ratios (%) of the subjects where the hair graying rates after use declined 20% or more compared with before use, changed within ±20% or increased by 20% or more were respectively calculated.
Structure (SMILES),Hair graying rate: Changing within ±20% (ratio of subjects) [%],Hair graying rate: Declining 20% or more (ratio of subjects) [%],Hair graying rate: Increasing 20% or more (ratio of subjects) [%]
"O=C(O)C1CCNCC1 [Compound 2, 4-piperidine carboxylic acid]",30,60,10
"NC1CCC(C(=O)O)CC1 (stereo not drawn) [Compound 1, 4-aminocyclohexane carboxylic acid]",30,70,0
"CCOC(=O)C1CCNCC1 [Compound 3, 4-piperidine carboxylic acid ethyl ester]",20,70,10
